According to ChEMBL document CHEMBL1201862, “PubChem BioAssay data set” (2004):
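Growth conditions: 96-well plates. Treatment: test compound, 48 hours, 5 concentrations. Analysis: linear interpolation between bracketing concentrations; unreached endpoints set to highest concentration. Abbreviation: GI50, concentration required for 50% inhibition of growth.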 The source made the active and inactive calls. Cut-off read from the data, not from the text of the source: active = GI50 up to about 1.1 µM and inactive = higher.

Assays:
Test in all cases: inhibition of tumour cell growth, NCI panel, 48 h
[1] = tested on: HCT-15
[2] = tested on: UACC-62
[3] = tested on: SK-MEL-28
[4] = tested on: SNB-75
[5] = tested on: SF-295
[6] = tested on: KM12
[7] = tested on: CCRF-CEM
[8] = tested on: DU-145
[9] = tested on: U-251
[10] = tested on: Malme-3M
[11] = tested on: OVCAR-5
[12] = tested on: SK-MEL-2
[13] = tested on: SF-539
[14] = tested on: MDA-MB-435
[15] = tested on: BT-549
[16] = tested on: NCI/ADR-RES
[17] = tested on: SW-620
[18] = tested on: HT-29
[19] = tested on: OVCAR-3
[20] = tested on: K562
[21] = tested on: HL-60
[22] = tested on: CAKI-1
[23] = tested on: 786-0
[24] = tested on: A498
[25] = tested on: NCI-H226
[26] = tested on: MDA-MB-231
[27] = tested on: T47D
[28] = tested on: COLO 205
[29] = tested on: PC-3
[30] = tested on: SN12C
[31] = tested on: NCI-H460
[32] = tested on: LOX IMVI
[33] = tested on: SK-MEL-5
[34] = tested on: MOLT-4
[35] = tested on: HOP-62
[36] = tested on: ACHN
[37] = tested on: RPMI-8226
[38] = tested on: IGROV-1
[39] = tested on: NCI-H522
[40] = tested on: OVCAR-8
[41] = tested on: RXF 393
[42] = tested on: EKVX
[43] = tested on: MDA-N
[44] = tested on: UO-31
[45] = tested on: Hs-578T
[46] = tested on: UACC-257
[47] = tested on: HCT-116
[48] = tested on: HOP-92
[49] = tested on: M14
[50] = tested on: SNB-19
[51] = tested on: SF-268
[52] = tested on: NCI-H23
[53] = tested on: SK-OV-3
[54] = tested on: TK-10
[55] = tested on: A549
[56] = tested on: OVCAR-4
[57] = tested on: HCC 2998
[58] = tested on: MCF7

CC1=NNC(=O)C1C1(C(=O)O)CC(c2c[nH]c3ccccc23)=NC(=S)N1 (configuration not stated)
GI50 [1]: 42.6 µM
GI50 [2]: 41.2 µM (inactive)
GI50 [3]: 47.1 µM (inactive)
GI50 [4]: 16.6 µM (inactive)
GI50 [5]: 19.4 µM (inactive)
GI50 [6]: 15.2 µM (inactive)
GI50 [7]: 27.2 µM (inactive)
GI50 [8]: 35.6 µM (inactive)
GI50 [9]: 26 µM (inactive)
GI50 [10]: 19 µM (inactive)
GI50 [11]: > 100 µM (inactive)
GI50 [12]: 18.4 µM (inactive)
GI50 [13]: 24.5 µM (inactive)
GI50 [14]: 35.5 µM (inactive)
GI50 [15]: 96.4 µM (inactive)
GI50 [16]: 46.8 µM (inactive)
GI50 [17]: 38.5 µM (inactive)
GI50 [18]: 26.3 µM (inactive)
GI50 [19]: 18.5 µM (inactive)
GI50 [20]: 25.4 µM (inactive)
GI50 [21]: 38.3 µM (inactive)
GI50 [22]: 43.5 µM (inactive)
GI50 [23]: 28.3 µM (inactive)
GI50 [24]: 94.8 µM (inactive)
GI50 [25]: 10.1 µM (inactive)
GI50 [26]: 24.3 µM (inactive)
GI50 [27]: 29 µM (inactive)
GI50 [28]: 17.1 µM (inactive)
GI50 [29]: 27.5 µM (inactive)
GI50 [30]: 40 µM (inactive)
GI50 [31]: 22.8 µM (inactive)
GI50 [32]: 17.5 µM (inactive)
GI50 [33]: 14.4 µM (inactive)
GI50 [34]: 19.4 µM (inactive)
GI50 [35]: 20 µM (inactive)
GI50 [36]: 33.5 µM (inactive)
GI50 [37]: 24.9 µM (inactive)
GI50 [38]: 0.224 µM (active)
GI50 [39]: 20 µM (inactive)
GI50 [40]: 39.4 µM (inactive)
GI50 [41]: 28.1 µM (inactive)
GI50 [42]: 20 µM (inactive)
GI50 [43]: 37.3 µM (inactive)
GI50 [44]: 29.8 µM (inactive)
GI50 [45]: 15.2 µM (inactive)
GI50 [46]: 27.6 µM (inactive)
GI50 [47]: 32.8 µM (inactive)
GI50 [48]: 22.3 µM (inactive)
GI50 [49]: 16.9 µM (inactive)
GI50 [50]: 29.3 µM (inactive)
GI50 [51]: 32.1 µM (inactive)
GI50 [52]: 22.1 µM (inactive)
GI50 [53]: 32.1 µM (inactive)
GI50 [54]: > 100 µM (inactive)
GI50 [55]: 37.7 µM (inactive)

C=C(C1=CC(=O)C(C)(C)O1)[C@@H]1CC=C([C@@H]2CC[C@H]3[C@@]2(C)CC[C@H]2C(C)(C)C(=O)[C@H](O)C[C@]32C)[C@H](O)O1
GI50 [1]: 2.04 µM
GI50 [2]: 4.88 µM (inactive)
GI50 [3]: 4.42 µM (inactive)
GI50 [4]: 10.6 µM (inactive)
GI50 [5]: 8.04 µM (inactive)
GI50 [6]: 3.86 µM (inactive)
GI50 [7]: 0.729 µM (active)
GI50 [8]: 1.03 µM (active)
GI50 [9]: 1.62 µM (inactive)
GI50 [10]: 2.35 µM (inactive)
GI50 [11]: 13.7 µM (inactive)
GI50 [12]: 2.2 µM (inactive)
GI50 [13]: 1.34 µM (inactive)
GI50 [14]: 2.49 µM (inactive)
GI50 [15]: 5.38 µM (inactive)
GI50 [16]: 3.98 µM (inactive)
GI50 [17]: 1.66 µM (inactive)
GI50 [18]: 1.87 µM (inactive)
GI50 [19]: 0.847 µM (active)
GI50 [20]: 1.71 µM (inactive)
GI50 [21]: 2.24 µM (inactive)
GI50 [22]: 3.89 µM (inactive)
GI50 [23]: 0.273 µM (active)
GI50 [24]: 5.16 µM (inactive)
GI50 [25]: 17.5 µM (inactive)
GI50 [26]: 2.15 µM (inactive)
GI50 [27]: 1.44 µM (inactive)
GI50 [28]: 1.8 µM (inactive)
GI50 [29]: 1.31 µM (inactive)
GI50 [30]: 1.98 µM (inactive)
GI50 [31]: 13 µM (inactive)
GI50 [32]: 1.81 µM (inactive)
GI50 [33]: 11.7 µM (inactive)
GI50 [34]: 0.982 µM (active)
GI50 [35]: 3.15 µM (inactive)
GI50 [36]: 1.66 µM (inactive)
GI50 [37]: 0.342 µM (active)
GI50 [38]: 2.18 µM (inactive)
GI50 [40]: 2.07 µM (inactive)
GI50 [41]: 1.81 µM (inactive)
GI50 [42]: 10.1 µM (inactive)
GI50 [43]: 1.67 µM (inactive)
GI50 [44]: 1.53 µM (inactive)
GI50 [56]: 3.11 µM (inactive)
GI50 [45]: 3.27 µM (inactive)
GI50 [46]: 1.97 µM (inactive)
GI50 [47]: 1.63 µM (inactive)
GI50 [48]: 1.98 µM (inactive)
GI50 [57]: 2.89 µM (inactive)
GI50 [49]: 1.58 µM (inactive)
GI50 [50]: 10.2 µM (inactive)
GI50 [51]: 1.88 µM (inactive)
GI50 [52]: 3.85 µM (inactive)
GI50 [58]: 0.546 µM (active)
GI50 [53]: 14.6 µM (inactive)
GI50 [54]: 1.19 µM (inactive)
GI50 [55]: 13.6 µM (inactive)
